≈ marks a conversion by molar mass, not a printed value. Like-named read-outs stand apart in the source and are kept apart here. Numbered stars: 1 amine (or outer) side, 2 acyl side, 3 side chain; on linkers, the order of the positions; unused ones are H or OH. Bridge positions count the residues as written; N and C are the ends. Side chains are listed from the residue outwards. Peptide text beside a SMILES is read from it. * marks the point of attachment. C20 diacid = O=C(O)CCCCCCCCCCCCCCCCCCC(=O)*; γGlu = O=C(O)[C@H](CCC(=O)[*:2])N[*:1]
What was measured:
[1] = target: T1, rat amylin receptor (rat calcitonin receptor + rat RAMP 3) (Rattus norvegicus, UniProt P32214+Q9JJ73); experiment: ASSAY (VI) binding to the rat amylin receptor; conditions: for IC50: binding to rat amylin receptor, read-out: rAmylin-R bind IC50
T1 construct: expressed in transfected cells; host or cells: BHK tk'ts 13 (transient, FuGENE 6), membranes
T1 sequence (P32214 25-479 isoform P32214-2 limits assumed): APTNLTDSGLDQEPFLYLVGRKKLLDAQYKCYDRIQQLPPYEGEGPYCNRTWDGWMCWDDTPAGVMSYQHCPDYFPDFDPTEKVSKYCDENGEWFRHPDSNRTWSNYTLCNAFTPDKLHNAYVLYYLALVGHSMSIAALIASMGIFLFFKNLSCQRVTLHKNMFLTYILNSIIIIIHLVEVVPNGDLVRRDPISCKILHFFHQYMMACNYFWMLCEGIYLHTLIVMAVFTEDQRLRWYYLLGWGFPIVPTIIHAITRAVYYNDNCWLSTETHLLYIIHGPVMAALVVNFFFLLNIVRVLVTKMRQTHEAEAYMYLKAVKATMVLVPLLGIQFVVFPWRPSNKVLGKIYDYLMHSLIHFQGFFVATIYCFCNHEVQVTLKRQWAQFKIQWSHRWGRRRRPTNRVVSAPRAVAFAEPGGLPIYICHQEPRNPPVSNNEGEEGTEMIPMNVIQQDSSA
T1 sequence (Q9JJ73 23-147 partner): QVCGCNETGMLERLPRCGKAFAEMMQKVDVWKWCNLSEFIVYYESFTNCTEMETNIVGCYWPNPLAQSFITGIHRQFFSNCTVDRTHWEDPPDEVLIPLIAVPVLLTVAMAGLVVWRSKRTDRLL
Method in brief: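 The cell-membrane assay assessed binding at the rat amylin receptor. BHK tk′ts 13 cells were transfected transiently with rat calcitonin receptor, with FuGENE® 6 (Roche) as the transfection reagent, used per the manufacturer's recommendations. Approximately 48 hours after transfection the cells were harvested, and membranes were prepared for measuring binding.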

Sprague Dawley (SD) rats = experiment: ASSAY (I) efficacy testing on appetite (food intake) using an ad libitum fed rat model; assay type: in vivo; conditions: rat
Method in brief: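 Individual food consumption was logged each hour up to 7 h and again at 24 h, occasionally 48 h, with Grubbs-test outliers removed. Each 200–250 g Sprague Dawley rat, free-feeding in its home cage under reversed lighting, received a single ip, po or sc dose of 0.01–3 mg/kg at lights-off, alongside a vehicle group.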

[2] = target: T2, human amylin receptor (membranes from Amylin 3(a)/CRE-luc cells) (Homo sapiens, UniProt O60896+P30988); experiment: ASSAY (V) binding to the human amylin receptor (SPA, 125I-rat amylin);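 note: competition binding of cell membranes (35 ng/µL) mixed with SPA beads in 384-well plates at 40 µL total volume, read by scintillation counting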
T2 construct: expressed in transfected cells
T2 sequence (P30988 25-474): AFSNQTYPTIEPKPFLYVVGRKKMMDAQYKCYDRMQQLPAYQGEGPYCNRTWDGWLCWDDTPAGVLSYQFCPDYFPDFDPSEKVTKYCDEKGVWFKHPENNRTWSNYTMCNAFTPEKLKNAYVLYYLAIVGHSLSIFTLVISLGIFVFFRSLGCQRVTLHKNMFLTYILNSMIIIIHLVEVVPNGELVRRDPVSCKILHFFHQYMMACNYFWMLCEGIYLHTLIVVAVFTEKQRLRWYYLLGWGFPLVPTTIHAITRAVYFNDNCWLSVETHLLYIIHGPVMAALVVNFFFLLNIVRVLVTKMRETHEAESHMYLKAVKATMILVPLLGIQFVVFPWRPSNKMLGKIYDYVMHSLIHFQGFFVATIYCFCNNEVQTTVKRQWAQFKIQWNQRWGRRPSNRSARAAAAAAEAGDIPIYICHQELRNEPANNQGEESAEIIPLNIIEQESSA
T2 sequence (O60896 24-148 partner): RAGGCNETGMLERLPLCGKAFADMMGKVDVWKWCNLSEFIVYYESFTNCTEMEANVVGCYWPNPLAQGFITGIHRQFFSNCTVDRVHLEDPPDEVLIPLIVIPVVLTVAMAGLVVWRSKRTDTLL

[3] = ASSAY (IV) determination of solubility; assay type: physicochemical
Method in brief: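 Solubility measured by UPLC of supernatant after centrifugation, following 18 h at room temperature. Peptide ([…] in water) was diluted 1:1 into 100 mM glycylglycine (pH 3.0, 4.0, 5.0) or bistrispropane (pH 6.0-8.0).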

rat calcitonin receptor = target: T3, rat calcitonin receptor (Rattus norvegicus, UniProt P32214); experiment: ASSAY (VIII) binding to the rat calcitonin receptor; conditions: Table 7, read-out: rCTR bind IC50
T3 construct: expressed in transfected cells; host or cells: BHK tk'ts 13 (transient, FuGENE 6), membranes
T3 sequence (P32214 25-479 isoform P32214-2 limits assumed): T1 sequence (P32214 25-479 isoform P32214-2 limits assumed)
Method in brief: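 BHK tk′ts 13 cells, transient rat calcitonin receptor transfection; DMEM + 10% FBS; harvest ~48 h post-transfection; membrane prep.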

[4] = Table 7, rat binding selectivity, rCTR IC50 / rAmylin-R IC50
[5] = Table 7a (preferred compounds), rat binding selectivity, rCTR IC50 / rAmylin-R IC50
[6] = ratio of rCTR bind IC50 to rAmylin-R bind IC50
[7] = Table 5, selectivity, hCTR bind IC50 / hAmylin-R bind IC50
[8] = Table 5a, selectivity, hCTR bind IC50 / hAmylin-R bind IC50
[9] = Table 5b, selectivity, hCTR bind IC50 / hAmylin-R bind IC50
[10] = Table 5c, selectivity, hCTR bind IC50 / hAmylin-R bind IC50
[11] = Table 7, human binding selectivity, included for comparison
[12] = Table 7a (preferred compounds), human binding selectivity, included for comparison
[13] = ratio of human calcitonin receptor binding IC50 to human amylin receptor binding IC50
[14] = bistrispropane buffer, pH 6.5, read-out: Solubility pH 6.5 Concentration
[15] = bistrispropane buffer, pH 7.5, read-out: Solubility pH 7.5 Concentration
[16] = bistrispropane buffer, pH 6.0, read-out: Solubility pH 6.0 Concentration
[17] = bistrispropane buffer, pH 7.0, read-out: Solubility pH 7.0 Concentration
[18] = bistrispropane buffer, pH 8.0, read-out: Solubility pH 8.0 Concentration
[19] = glycylglycine buffer, pH 3.0, read-out: Solubility pH 3.0 Concentration
[20] = glycylglycine buffer, pH 4.0, read-out: Solubility pH 4.0 Concentration
[21] = glycylglycine buffer, pH 5.0, read-out: Solubility pH 5.0 Concentration

Row | Structure (SMILES) | IC50 ([1]; Table 7) [nM] | Ratio rCT/rAmylin binding [1, 4] | Ratio rCT/rAmylin binding [1, 5] | Ratio rCT/rAmylin binding [1, 6] | Food intake reduction 0-24 h 30 nmol/kg (%) (Sprague Dawley (SD) rats; 0-24 h) | Food intake reduction 24-48 h 30 nmol/kg (%) (Sprague Dawley (SD) rats; 24-48 h) | Ratio hCT/hAmylin binding [2, 7] | Ratio hCT/hAmylin binding [2, 8] | Ratio hCT/hAmylin binding [2, 9] | Ratio hCT/hAmylin binding [2, 10] | Ratio hCT/hAmylin binding [2, 11] | Ratio hCT/hAmylin binding [2, 12] | Ratio hCT/hAmylin binding [2, 13] | solubility at 18 h [3, 14] [µM] | solubility at 18 h [3, 15] [µM] | solubility at 18 h [3, 16] [µM] | solubility at 18 h [3, 18] [µM] | solubility at 18 h [3, 19] [µM] | solubility at 18 h [3, 20] [µM] | solubility at 18 h [3, 21] [µM] | also measured
1 | CC[C@H](C)[C@H](NC(=O)[C@H](C)NC(=O)CNC(=O)[C@H](Cc1ccccc1)NC(=O)[C@H](CC(N)=O)NC(=O)[C@@H]1CCCN1C(=O)[C@H](CO)NC(=O)[C@H](CO)NC(=O)[C@H](Cc1c[nH]cn1)NC(=O)[C@H](CCCNC(=N)N)NC(=O)[C@H](CC(C)C)NC(=O)[C@H](Cc1ccccc1)NC(=O)[C@H](CC(N)=O)NC(=O)[C@H](C)NC(=O)[C@H](CC(C)C)NC(=O)[C@H](CCCNC(=N)N)NC(=O)[C@H](CCC(N)=O)NC(=O)[C@@H](NC(=O)[C@H](C)NC(=O)[C@@H]1CSSC[C@H](NC(=O)[C@@H](N)CCCCNC(=O)CC[C@H](NC(=O)CC[C@H](NC(=O)CCCCCCCCCCCCCCCCCCC(=O)O)C(=O)O)C(=O)O)C(=O)N[C@@H](CC(N)=O)C(=O)N[C@@H]([C@@H](C)O)C(=O)N[C@@H](C)C(=O)N[C@@H]([C@@H](C)O)C(=O)N1)[C@@H](C)O)C(=O)N1CCC[C@H]1C(=O)N[C@@H](CO)C(=O)N[C@@H](CO)C(=O)N[C@H](C(=O)N[C@@H](CC(N)=O)C(=O)N[C@H](C(=O)NCC(=O)N[C@@H](Cc1c[nH]cn1)C(=O)N[C@@H](CC(N)=O)C(=O)N[C@H](C(=O)N[C@@H](Cc1ccc(O)cc1)C(N)=O)[C@@H](C)O)C(C)C)[C@@H](C)O [Example 86] (H-K([γGlu-γGlu-C20 diacid])CNTATCATQRLANFLRHSSPNFGAIPSSTNVGHNTY-NH2; disulfide 2-7) | 2.8 | 125.7 | 125.7 | 125.7 | 48 | 26 | 159.3 | 159.3 | 159.3 | 159.3 | 159.3 | 159.3 | 159.3 | ≥ 200 | 157 (≈ 716 µg/mL) | ≥ 200 | ≥ 200 | ≥ 200 | ≥ 200 | ≥ 200 | IC50 ([2]; Table 4, read-out: hAmylin-R bind IC50): 0.833 nM; solubility at 18 h [3, 17]: ≥ 200 µM; IC50 (rat calcitonin receptor): 352 nM
2 | CC[C@H](C)[C@H](NC(=O)[C@H](C)NC(=O)CNC(=O)[C@H](Cc1ccccc1)NC(=O)[C@H](CC(N)=O)NC(=O)[C@@H]1CCCN1C(=O)[C@H](CO)NC(=O)[C@H](CO)NC(=O)[C@H](Cc1c[nH]cn1)NC(=O)[C@H](CCCNC(=N)N)NC(=O)[C@H](CC(C)C)NC(=O)[C@H](Cc1ccccc1)NC(=O)[C@H](CC(N)=O)NC(=O)[C@H](C)NC(=O)[C@H](CC(C)C)NC(=O)[C@H](CCCNC(=N)N)NC(=O)[C@H](CCC(N)=O)NC(=O)[C@@H](NC(=O)[C@H](C)NC(=O)[C@@H]1CSSC[C@H](NC(=O)[C@@H](N)CCCCNC(=O)CC[C@H](NC(=O)CCCCCCCCCCCCCCCCC(=O)O)C(=O)O)C(=O)N[C@@H](CC(N)=O)C(=O)N[C@@H]([C@@H](C)O)C(=O)N[C@@H](C)C(=O)N[C@@H]([C@@H](C)O)C(=O)N1)[C@@H](C)O)C(=O)N1CCC[C@H]1C(=O)N[C@@H](CO)C(=O)N[C@@H](CO)C(=O)N[C@H](C(=O)N[C@@H](CC(N)=O)C(=O)N[C@H](C(=O)NCC(=O)N[C@@H](Cc1c[nH]cn1)C(=O)N[C@@H](CC(N)=O)C(=O)N[C@H](C(=O)N[C@@H](Cc1ccc(O)cc1)C(N)=O)[C@@H](C)O)C(C)C)[C@@H](C)O [Example 113] | 1.17 | 40.3 | 40.3 | 40.3 | 48 | 2 | 59.4 | 59.4 | 59.4 | 59.4 | 59.4 | 59.4 | 59.4 | ≥ 200 | 154 (≈ 678 µg/mL) | ≥ 200 | 96 (≈ 423 µg/mL) | ≥ 200 | ≥ 200 | ≥ 200 | IC50 (rat calcitonin receptor): 47 nM
3 | CC[C@H](C)[C@H](NC(=O)[C@H](C)NC(=O)CNC(=O)[C@H](Cc1ccccc1)NC(=O)[C@H](CC(N)=O)NC(=O)[C@@H]1CCCN1C(=O)[C@H](CO)NC(=O)[C@H](CO)NC(=O)[C@H](Cc1c[nH]cn1)NC(=O)[C@H](CCCNC(=N)N)NC(=O)[C@H](CC(C)C)NC(=O)[C@H](Cc1ccccc1)NC(=O)[C@H](CC(=O)O)NC(=O)[C@H](C)NC(=O)[C@H](CC(C)C)NC(=O)[C@H](CCCNC(=N)N)NC(=O)[C@H](CCC(N)=O)NC(=O)[C@@H](NC(=O)[C@H](C)NC(=O)[C@@H]1CSSC[C@H](NC(=O)[C@@H](N)CCCCNC(=O)CC[C@H](NC(=O)CC[C@H](NC(=O)CCCCCCCCCCCCCCCCCCC(=O)O)C(=O)O)C(=O)O)C(=O)N[C@@H](CC(N)=O)C(=O)N[C@@H]([C@@H](C)O)C(=O)N[C@@H](C)C(=O)N[C@@H]([C@@H](C)O)C(=O)N1)[C@@H](C)O)C(=O)N1CCC[C@H]1C(=O)N[C@@H](CO)C(=O)N[C@@H](CO)C(=O)N[C@H](C(=O)N[C@@H](CC(N)=O)C(=O)N[C@H](C(=O)NCC(=O)N[C@@H](CO)C(=O)N[C@@H](CCCNC(=N)N)C(=O)N[C@H](C(=O)N[C@@H](Cc1ccc(O)cc1)C(N)=O)[C@@H](C)O)C(C)C)[C@@H](C)O [Example 52, N-ε-1-{(S)-4-carboxy-4-[(S)-4-carboxy-4-(19-carboxynonadecanoylamino)butyrylamino]butyryl}-[Asp14,Arg17,Pro21,Pro27,Arg35]-human amylin] | 0.335 | 476.7 | 476.7 | 476.7 | 63 | 50 | 81.6 | 81.6 | 81.6 | 81.6 | 81.6 | 81.6 | 81.6 | ≥ 200 | 106 (≈ 483 µg/mL) | ≥ 200 | 110 (≈ 501 µg/mL) | ≥ 200 | ≥ 200 | ≥ 200 | Food intake reduction 0-24 h 3 nmol/kg (%) (Sprague Dawley (SD) rats; 3 nmol/kg, 0-24 h): 25%; Food intake reduction 24-48 h 3 nmol/kg (%) (Sprague Dawley (SD) rats; 3 nmol/kg, 24-48 h): 15%; solubility at 18 h [3, 17]: 155 µM (≈ 706 µg/mL); IC50 (rat calcitonin receptor): 159 nM

From patent US9023789B2, “Amylin analogs and pharmaceutical compositions thereof” (Novo Nordisk A/S, priority 2012, dated 2015)
